According to article PMC10178848, “Modulating fast skeletal muscle contraction protects skeletal muscle in animal models of Duchenne muscular dystrophy” (The Journal of Clinical Investigation, 2023):

Tested on: mdx mouse EDL muscle
Assay: Phosphoprotein array analysis (Cell Signaling Phospho Antibody Array)
Procedure: mdx mouse EDL muscle was prepared for ex vivo analysis as described (n = 5). Muscles were incubated for 1 hour with DMSO or EDG-5506 (5 μM) and then flash frozen in liquid nitrogen. Tissue preparation and analysis were performed as recommended by the manufacturer (Cell Signaling Phospho Antibody Array, Full Moon Biosystems).

O=c1ccc(-c2cnc(OCC(F)(F)F)nc2)nn1Cc1cncc(F)c1 [EDG-5506]
Data Normalized to Median Signal: CDK1/CDC2 (Phospho-Tyr15) (4000031744 (T)): 0.89
Data Normalized to Median Signal: CREB (Phospho-Ser133) (4000031744 (T)): 0.81
Data Normalized to Median Signal: CaMK2-beta/gamma/delta (Phospho-Thr287) (4000031744 (T)): 1.20
Data Normalized to Median Signal: CaMK2A (Phospho-Thr286) (4000031744 (T)): 0.85
Data Normalized to Median Signal: Caspase 8 (Phospho-Ser347) (4000031744 (T)): 1.06
Data Normalized to Median Signal: Caspase 9 (Phospho-Ser196) (4000031744 (T)): 2.98
Data Normalized to Median Signal: Catenin beta (Phospho-Thr41/Ser45) (4000031744 (T)): 0.90
Data Normalized to Median Signal: Chk2 (Phospho-Thr68) (4000031744 (T)): 0.66
Data Normalized to Median Signal: Cyclin D1 (Phospho-Thr286) (4000031744 (T)): 2.47
Data Normalized to Median Signal: Cyclin E1 (Phospho-Thr77) (4000031744 (T)): 1.57
Data Normalized to Median Signal: DARPP-32 (Phospho-Thr34) (4000031744 (T)): 0.93
Data Normalized to Median Signal: EEF2 (Phospho-Thr56) (4000031744 (T)): 1.33
Data Normalized to Median Signal: FADD (Phospho-Ser194) (4000031744 (T)): 2.10
Data Normalized to Median Signal: FAK (Phospho-Ser910) (4000031744 (T)): 1.62
Data Normalized to Median Signal: FGFR1 (Phospho-Tyr654) (4000031744 (T)): 2.43
Data Normalized to Median Signal: GRK2 (Phospho-Ser29) (4000031744 (T)): 1.51
Data Normalized to Median Signal: GSK3 alpha/beta (Phospho-Tyr216/279) (4000031744 (T)): 1.02
Data Normalized to Median Signal: Gab2 (Phospho-Tyr643) (4000031744 (T)): 4.36
Data Normalized to Median Signal: HDAC1 (Phospho-Ser421) (4000031744 (T)): 1.53
Data Normalized to Median Signal: HDAC2 (Phospho-Ser394) (4000031744 (T)): 1.45
Data Normalized to Median Signal: HSP90B (Phospho-Ser226) (4000031744 (T)): 2.09
Data Normalized to Median Signal: IKK-beta (Phospho-Tyr188) (4000031744 (T)): 1.11
Data Normalized to Median Signal: IKK-beta (Phospho-Tyr199) (4000031744 (T)): 1.14
Data Normalized to Median Signal: IKK-gamma (Phospho-Ser31) (4000031744 (T)): 0.98
Data Normalized to Median Signal: IL-4R/CD124 (Phospho-Tyr497) (4000031744 (T)): 1.35
Data Normalized to Median Signal: IL-10R-alpha (Phospho-Tyr496) (4000031744 (T)): 1.26
Data Normalized to Median Signal: IkB-alpha (Phospho-Ser32/36) (4000031744 (T)): 8.76
Data Normalized to Median Signal: Integrin beta-3 (Phospho-Tyr773) (4000031744 (T)): 0.89
Data Normalized to Median Signal: JunB (Phospho-Ser259) (4000031744 (T)): 0.90
Data Normalized to Median Signal: LYN (Phospho-Tyr507) (4000031744 (T)): 1.16
Data Normalized to Median Signal: Lamin A/C (Phospho-Ser392) (4000031744 (T)): 0.81
Data Normalized to Median Signal: MEK1 (Phospho-Ser217) (4000031744 (T)): 0.66
Data Normalized to Median Signal: NFkB-p65 (Phospho-Ser311) (4000031744 (T)): 0.96
Data Normalized to Median Signal: NFkB-p65 (Phospho-Ser529) (4000031744 (T)): 54.58
Data Normalized to Median Signal: NFkB-p100/p52 (Phospho-Ser865) (4000031744 (T)): 1.13
Data Normalized to Median Signal: P38 MAPK (Phospho-Thr180/Tyr182) (4000031744 (T)): 1.99
Data Normalized to Median Signal: P70S6K (Phospho-Ser424) (4000031744 (T)): 0.97
Data Normalized to Median Signal: P90RSK (Phospho-Thr359/Ser363) (4000031744 (T)): 1.39
Data Normalized to Median Signal: PDK1 (Phospho-Ser241) (4000031744 (T)): 1.70
Data Normalized to Median Signal: PLCG1 (Phospho-Tyr783) (4000031744 (T)): 7.48
Data Normalized to Median Signal: PLK1 (Phospho-Thr210) (4000031744 (T)): 0.61
Data Normalized to Median Signal: PP2A-alpha (Phospho-Tyr307) (4000031744 (T)): 0.97
Data Normalized to Median Signal: PPAR-gamma (Phospho-Ser112) (4000031744 (T)): 1.23
Data Normalized to Median Signal: Rb (Phospho-Ser807) (4000031744 (T)): 0.99
Data Normalized to Median Signal: RelB (Phospho-Ser552) (4000031744 (T)): 2.68
Data Normalized to Median Signal: SAPK/JNK (Phospho-Tyr185) (4000031744 (T)): 0.87
Data Normalized to Median Signal: SHP-2 (Phospho-Tyr542) (4000031744 (T)): 1.06
Data Normalized to Median Signal: STAT3 (Phospho-Tyr705) (4000031744 (T)): 0.90
Data Normalized to Median Signal: STAT4 (Phospho-Tyr693) (4000031744 (T)): 43.74
Data Normalized to Median Signal: STAT6 (Phospho-Thr645) (4000031744 (T)): 0.94
Data Normalized to Median Signal: SYK (Phospho-Tyr348) (4000031744 (T)): 1.04
Data Normalized to Median Signal: Smad1 (Phospho-Ser187) (4000031744 (T)): 1.71
Data Normalized to Median Signal: Smad2 (Phospho-Ser467) (4000031744 (T)): 1.05
Data Normalized to Median Signal: Smad2/3 (Phospho-Thr8) (4000031744 (T)): 2.11
Data Normalized to Median Signal: Smad3 (Phospho-Ser213) (4000031744 (T)): 1.56
Data Normalized to Median Signal: Src (Phospho-Tyr418) (4000031744 (T)): 9.05
Data Normalized to Median Signal: Tau (Phospho-Ser396) (4000031744 (T)): 0.88
Data Normalized to Median Signal: VEGFR2 (Phospho-Tyr1175) (4000031744 (T)): 0.88
Data Normalized to Median Signal: Zap-70 (Phospho-Tyr319) (4000031744 (T)): 1.25
Data Normalized to Median Signal: c-Jun (Phospho-Ser73) (4000031744 (T)): 0.98
Data Normalized to Median Signal: p44/42 MAP Kinase (Phospho-Tyr204) (4000031744 (T)): 0.86
Data Normalized to Median Signal: p53 (Phospho-Ser15) (4000031744 (T)): 1.59
Fold Change between Samples T/C: 4E-BP1 (Phospho-Thr45) (T vs C): 0.89
Fold Change between Samples T/C: ACC1 (Phospho-Ser80) (T vs C): 1.12
Fold Change between Samples T/C: AMPKbeta1 (Phospho-Ser182) (T vs C): 0.97
Fold Change between Samples T/C: B-RAF (Phospho-Ser446) (T vs C): 1.05
Fold Change between Samples T/C: BAX (Phospho-Thr167) (T vs C): 0.95
Fold Change between Samples T/C: BCL-XL (Phospho-Ser62) (T vs C): 1.23
Fold Change between Samples T/C: BLNK (Phospho-Tyr96) (T vs C): 0.62
Fold Change between Samples T/C: CBL (Phospho-Tyr700) (T vs C): 0.88
Fold Change between Samples T/C: CDK1/CDC2 (Phospho-Tyr15) (T vs C): 0.83
Fold Change between Samples T/C: CREB (Phospho-Ser133) (T vs C): 0.74
Fold Change between Samples T/C: CaMK2-beta/gamma/delta (Phospho-Thr287) (T vs C): 0.92
Fold Change between Samples T/C: CaMK2A (Phospho-Thr286) (T vs C): 0.86
Fold Change between Samples T/C: Caspase 8 (Phospho-Ser347) (T vs C): 1.08
Fold Change between Samples T/C: Caspase 9 (Phospho-Ser196) (T vs C): 0.94
Fold Change between Samples T/C: Catenin beta (Phospho-Thr41/Ser45) (T vs C): 0.83
Fold Change between Samples T/C: Chk2 (Phospho-Thr68) (T vs C): 0.51
Fold Change between Samples T/C: Cyclin D1 (Phospho-Thr286) (T vs C): 1.18
Fold Change between Samples T/C: Cyclin E1 (Phospho-Thr77) (T vs C): 1.02
Fold Change between Samples T/C: DARPP-32 (Phospho-Thr34) (T vs C): 0.91
Fold Change between Samples T/C: EEF2 (Phospho-Thr56) (T vs C): 1.12
Fold Change between Samples T/C: FADD (Phospho-Ser194) (T vs C): 1.53
Fold Change between Samples T/C: FAK (Phospho-Ser910) (T vs C): 1.09
Fold Change between Samples T/C: FGFR1 (Phospho-Tyr654) (T vs C): 1.35
Fold Change between Samples T/C: GRK2 (Phospho-Ser29) (T vs C): 1.26
Fold Change between Samples T/C: GSK3 alpha/beta (Phospho-Tyr216/279) (T vs C): 0.97
Fold Change between Samples T/C: Gab2 (Phospho-Tyr643) (T vs C): 1.59
Fold Change between Samples T/C: HDAC1 (Phospho-Ser421) (T vs C): 1.25
Fold Change between Samples T/C: HDAC2 (Phospho-Ser394) (T vs C): 0.90
Fold Change between Samples T/C: HSP90B (Phospho-Ser226) (T vs C): 1.00
Fold Change between Samples T/C: IKK-beta (Phospho-Tyr188) (T vs C): 1.01
Fold Change between Samples T/C: IKK-beta (Phospho-Tyr199) (T vs C): 0.84
Fold Change between Samples T/C: IKK-gamma (Phospho-Ser31) (T vs C): 0.98
Fold Change between Samples T/C: IL-4R/CD124 (Phospho-Tyr497) (T vs C): 0.93
Fold Change between Samples T/C: IL-10R-alpha (Phospho-Tyr496) (T vs C): 0.85
Fold Change between Samples T/C: IkB-alpha (Phospho-Ser32/36) (T vs C): 1.11
Fold Change between Samples T/C: Integrin beta-3 (Phospho-Tyr773) (T vs C): 0.93
Fold Change between Samples T/C: JunB (Phospho-Ser259) (T vs C): 0.79
Fold Change between Samples T/C: LYN (Phospho-Tyr507) (T vs C): 1.06
Fold Change between Samples T/C: Lamin A/C (Phospho-Ser392) (T vs C): 0.80
Fold Change between Samples T/C: MEK1 (Phospho-Ser217) (T vs C): 0.62
Fold Change between Samples T/C: NFkB-p65 (Phospho-Ser311) (T vs C): 1.00
Fold Change between Samples T/C: NFkB-p65 (Phospho-Ser529) (T vs C): 0.82
Fold Change between Samples T/C: NFkB-p100/p52 (Phospho-Ser865) (T vs C): 0.88
Fold Change between Samples T/C: P38 MAPK (Phospho-Thr180/Tyr182) (T vs C): 0.35
Fold Change between Samples T/C: P70S6K (Phospho-Ser424) (T vs C): 1.00
Fold Change between Samples T/C: P90RSK (Phospho-Thr359/Ser363) (T vs C): 0.95
Fold Change between Samples T/C: PDK1 (Phospho-Ser241) (T vs C): 1.14
Fold Change between Samples T/C: PLCG1 (Phospho-Tyr783) (T vs C): 2.25
Fold Change between Samples T/C: PLK1 (Phospho-Thr210) (T vs C): 0.60
Fold Change between Samples T/C: PP2A-alpha (Phospho-Tyr307) (T vs C): 0.93
Fold Change between Samples T/C: PPAR-gamma (Phospho-Ser112) (T vs C): 1.26
Fold Change between Samples T/C: Rb (Phospho-Ser807) (T vs C): 0.91
Fold Change between Samples T/C: RelB (Phospho-Ser552) (T vs C): 0.76
Fold Change between Samples T/C: SAPK/JNK (Phospho-Tyr185) (T vs C): 0.84
Fold Change between Samples T/C: SHP-2 (Phospho-Tyr542) (T vs C): 0.91
Fold Change between Samples T/C: STAT3 (Phospho-Tyr705) (T vs C): 0.92
Fold Change between Samples T/C: STAT4 (Phospho-Tyr693) (T vs C): 1.04
Fold Change between Samples T/C: STAT6 (Phospho-Thr645) (T vs C): 0.89
Fold Change between Samples T/C: SYK (Phospho-Tyr348) (T vs C): 0.91
Fold Change between Samples T/C: Smad1 (Phospho-Ser187) (T vs C): 1.60
Fold Change between Samples T/C: Smad2 (Phospho-Ser467) (T vs C): 1.00
Fold Change between Samples T/C: Smad2/3 (Phospho-Thr8) (T vs C): 1.25
Fold Change between Samples T/C: Smad3 (Phospho-Ser213) (T vs C): 1.26
Fold Change between Samples T/C: Src (Phospho-Tyr418) (T vs C): 0.77
